Laboratory results: article PMC11881906, “Development of xanthone derivatives as effective broad-spectrum antimicrobials: Disrupting cell wall and inhibiting DNA synthesis” (Science Advances, 2025)
Converted amounts (≈) assume the structure as drawn. Like-named read-outs stand apart in the source and are kept apart here.

Key:
A. baumannii ATCC 17978 = assay: MIC, broth microdilution; assay type: cell-based; settings: Acinetobacter baumannii, ATCC17978; 24-hour incubation, MHB
Method: (§1) MIC was determined using the broth microdilution method in accordance with Clinical and Laboratory Standards Institute guidelines. All compounds were dissolved in dimethyl sulfoxide (DMSO; final DMSO concentration of less than 0.5%) and sterile double-distilled water and then diluted with Mueller-Hinton broth (MHB). Each compound’s stock solution was serially twofold diluted, resulting in concentrations ranging from 0.39 to 100 μg/ml, and thereafter added to sterile 96-well plates. All bacterial cell suspensions were adjusted in MHB to attain a starting inoculum of 1 × 10^6 cells/ml. A total of 100 μl volume of the bacterial suspension was then added to each well. Following a 24-hour incubation at 37°C, the optical density at 600 nm (OD600) was confirmed by measuring absorbance at 600 nm with a BioTek microplate reader. […] All measurements were repeated three times with duplicates each time.

A. baumannii R2889 = assay: MIC, broth microdilution; assay type: cell-based; settings: Acinetobacter baumannii, 24-hour incubation, MHB
Method: as §1

K. pneumonia ATCC 10031 = assay: MIC, broth microdilution; assay type: cell-based; settings: Klebsiella pneumoniae, ATCC10031; 24-hour incubation, MHB
Method: as §1

K. pneumonia ATCC 14581 = assay: MIC, broth microdilution; assay type: cell-based; settings: Klebsiella pneumoniae, ATCC14581; 24-hour incubation, MHB
Method: as §1

MRSA N315 = assay: MIC, broth microdilution; assay type: cell-based; settings: Staphylococcus aureus, 24-hour incubation, MHB, read-out: MIC90 MRSA N315
Method: as §1

MRSA NCTC 10442 = assay: MIC, broth microdilution; assay type: cell-based; settings: Staphylococcus aureus; 24-hour incubation, MHB; read-out: MIC90 MRSA NCTC 10442
Method: as §1

P. aeruginosa ATCC 9027 = assay: MIC, broth microdilution; assay type: cell-based; settings: Pseudomonas aeruginosa, ATCC9027; 24-hour incubation, MHB
Method: as §1

S. aureus ATCC 29213 [1] = assay: MIC, broth microdilution; assay type: cell-based; settings: Staphylococcus aureus, ATCC29213, 24 h, 24-hour incubation, MHB; read-out: MIC90 S. aureus ATCC 29213
Method: as §1

rabbit erythrocytes = assay: Hemolysis assay; assay type: cell-based; settings: concentration causing 50% hemolysis of red blood cells; 1 hour, 37°C
Method: The hemolytic activity of antimicrobial agents was investigated as previously described ([70]). Briefly, the rabbit erythrocytes were centrifuged at 2500 rpm for 3 min before being washed twice with sterile phosphate-buffered saline (PBS) (pH 7.4). Subsequently, the erythrocytes were diluted with PBS to a final concentration of 8% (v/v). The DMSO-dissolved compounds were twofold serially diluted in PBS to achieve a final concentration with DMSO less than 0.5%. […] Sterile PBS and 0.2% Triton X-100 were used as negative and positive controls, respectively. After 1 hour of incubation at 37°C, the tested samples were centrifuged at 2500 rpm for 5 min, and aliquots of the supernatant were added to 96-well microplates. The hemoglobin release was determined by measuring the absorbance at 576 nm using a BioTek multimode reader. The percentage of hemolytic activity was calculated using the following formula: Hemolysis rate (%) = [OD576 (compound) − OD576 (PBS)]/[OD576 (Triton X-100) − OD576 (PBS)] × 100. All measurements were repeated three times with duplicates each time.

Gram-positive bacteria = assay: MIC, summary over Gram-positive strains; assay type: cell-based; settings: read-out: MICs against Gram-positive bacteria, three Gram-positive strains
Method: as §1

E. coli ATCC 25922 = assay: MIC, broth microdilution; assay type: cell-based, Escherichia coli; settings: 24-hour incubation, MHB; for MIC90: Escherichia coli, ATCC25922, 24 h, read-out: MIC90 E. coli ATCC 25922
Method: as §1

Gram-negative bacteria = assay: MIC, Gram-negative strains; assay type: cell-based; settings: read-out: MICs against Gram-negative bacteria
Method: as §1

CCK-8 cytotoxicity assay = assay type: cell-based; settings: mouse, NCTC clone 929 fibroblast cells, 25 μg/ml, read-out: %Viable cells NCTC clone 929 cells
Method: Cytotoxicity of the compound tested was assessed by CCK-8 assays as previously described ([71]). […] Following a 24-hour incubation, 10 μl of CCK-8 reagent was added to each well and incubated for 1 hour. The absorbance at 450 nm was measured by a microplate reader. All measurements were repeated three times with duplicates each time.

[2] = test system: tested strains (Gram-positive and Gram-negative bacteria); assay: MIC, summary over the tested strains; assay type: cell-based; settings: 24 h, read-out: MICs against the tested strains
Method: as §1

[3] = not the whole compound, cited from earlier work
S. aureus ATCC 29213 [4] = assay: Serial passage resistance induction; assay type: cell-based, Staphylococcus aureus; settings: 20-day passages at 0.5× MIC
Method: The bacteria were grown in a medium containing 0.5× MIC of each compound to prepare the bacterial suspension for the next MIC determination. The MICs were then recorded after incubation at 37°C for 24 hours. Daily passages were continued until the initial MIC increased by more than fourfold. The stability of acquired resistance was investigated by MIC determination and repeated for 20 days.

K. pneumoniae = assay: MIC, summary over K. pneumoniae strains; assay type: cell-based; settings: Klebsiella pneumoniae, two strains; read-out: MICs against K. pneumoniae
Method: as §1

## CC(C)=CCOc1cc(OCCCCCCCCNC(=N)N)cc2oc3cc(OCCCCCCCCNC(=N)N)ccc3c(=O)c12 [XT45]
A. baumannii ATCC 17978
  MIC90: 50 µg/mL (≈ 76.8 µM)
A. baumannii R2889
  MIC90: 50 µg/mL (≈ 76.8 µM)
K. pneumonia ATCC 10031
  MIC90: 12.5 µg/mL (≈ 19.2 µM)
K. pneumonia ATCC 14581
  MIC90: 25 µg/mL (≈ 38.4 µM)
MRSA N315
  MIC90: 0.195 µg/mL (≈ 0.3 µM)
MRSA NCTC 10442
  MIC90: 0.39 µg/mL (≈ 0.599 µM)
P. aeruginosa ATCC 9027
  MIC90: > 50 µg/mL
S. aureus ATCC 29213 [1]
  MIC90: 0.39 µg/mL (≈ 0.599 µM)
Rabbit erythrocytes
  HC50: >200 µg/mL
Gram-positive bacteria
  MIC: 0.098 to 1.56 µg/mL (≈ 0.151 to 2.4 µM)

## CC(C)=CCOc1cc(OCCNC(=N)N)cc2oc3cc(OCCNC(=N)N)ccc3c(=O)c12 [XT42]
A. baumannii ATCC 17978
  MIC90: > 50 µg/mL
A. baumannii R2889
  MIC90: > 50 µg/mL
K. pneumonia ATCC 10031
  MIC90: 50 µg/mL (≈ 104 µM)
K. pneumonia ATCC 14581
  MIC90: 50 µg/mL (≈ 104 µM)
MRSA N315
  MIC90: 1.56 µg/mL (≈ 3.23 µM)
MRSA NCTC 10442
  MIC90: 1.56 µg/mL (≈ 3.23 µM)
P. aeruginosa ATCC 9027
  MIC90: 6.25 µg/mL (≈ 13 µM)
S. aureus ATCC 29213 [1]
  MIC90: 1.56 µg/mL (≈ 3.23 µM)
Rabbit erythrocytes
  HC50: >200 µg/mL
Gram-positive bacteria
  MIC: 0.098 to 1.56 µg/mL (≈ 0.203 to 3.23 µM)

## [H]/N=C(/N)NCCCOc1ccc2c(=O)c3c(OCC=C(C)CCC=C(C)C)cc(OCCCNC(=N)N)cc3oc2c1 [XT18]
A. baumannii ATCC 17978
  MIC90: 25 µg/mL (≈ 43.2 µM)
A. baumannii R2889
  MIC90: 12.5 µg/mL (≈ 21.6 µM)
K. pneumonia ATCC 10031
  MIC90: 6.25 µg/mL (≈ 10.8 µM)
K. pneumonia ATCC 14581
  MIC90: 12.5 µg/mL (≈ 21.6 µM)
MRSA N315
  MIC90: 0.78 µg/mL (≈ 1.35 µM)
MRSA NCTC 10442
  MIC90: 0.78 µg/mL (≈ 1.35 µM)
P. aeruginosa ATCC 9027
  MIC90: 12.5 µg/mL (≈ 21.6 µM)
S. aureus ATCC 29213 [1]
  MIC90: 0.78 µg/mL (≈ 1.35 µM)
E. coli ATCC 25922
  MIC90: 1.56 µg/mL (≈ 2.7 µM)
Rabbit erythrocytes
  HC50: 65.3 ± 2.75 µg/mL
Gram-positive bacteria
  MIC: 0.39 µg/mL (≈ 0.674 µM)
Gram-negative bacteria
  MIC: 1.56 µg/mL (≈ 2.7 µM)

## CC(C)=CCOc1cc(OCCCCNC(=N)N)cc2oc3cc(OCCCCNC(=N)N)ccc3c(=O)c12 [XT43]
A. baumannii ATCC 17978
  MIC90: 12.5 µg/mL (≈ 23.2 µM)
A. baumannii R2889
  MIC90: 25 µg/mL (≈ 46.4 µM)
K. pneumonia ATCC 10031
  MIC90: 6.25 µg/mL (≈ 11.6 µM)
K. pneumonia ATCC 14581
  MIC90: 12.5 µg/mL (≈ 23.2 µM)
MRSA N315
  MIC90: 0.195 µg/mL (≈ 0.362 µM)
MRSA NCTC 10442
  MIC90: 0.195 µg/mL (≈ 0.362 µM)
P. aeruginosa ATCC 9027
  MIC90: 12.5 µg/mL (≈ 23.2 µM)
S. aureus ATCC 29213 [1]
  MIC90: 0.195 µg/mL (≈ 0.362 µM)
E. coli ATCC 25922
  MIC90 E. coli ATCC 25922: 1.56 µg/mL (≈ 2.9 µM)
  MIC90: 1.56 to 12.5 µg/mL (≈ 2.9 to 23.2 µM)
Rabbit erythrocytes
  HC50: >200 µg/mL
Gram-positive bacteria
  MIC: 0.098 to 1.56 µg/mL (≈ 0.182 to 2.9 µM)
CCK-8 cytotoxicity assay
  viability at 24 h, 25 μg/ml: 40.3 ± 1.33%

## CC(C)=CCOc1cc(OCCCN2CCSCC2)cc2oc3cc(OCCCN4CCSCC4)ccc3c(=O)c12 [XT11]
MRSA N315
  MIC90: > 50 µg/mL
MRSA NCTC 10442
  MIC90: > 50 µg/mL
S. aureus ATCC 29213 [1]
  MIC90: > 50 µg/mL
E. coli ATCC 25922
  MIC90: > 50 µg/mL
Rabbit erythrocytes
  HC50: >200 µg/mL
[2]
  MIC: > 50 µg/mL
[3]; for the free thiomorpholine group
  pKa: 9.0

## CC(C)=CCOc1cc(OCCCN)cc2oc3cc(OCCCN)ccc3c(=O)c12 [XT07]
MRSA N315
  MIC90: 12.5 µg/mL (≈ 29.3 µM)
MRSA NCTC 10442
  MIC90: 12.5 µg/mL (≈ 29.3 µM)
S. aureus ATCC 29213 [1]
  MIC90: 12.5 µg/mL (≈ 29.3 µM)
E. coli ATCC 25922
  MIC90: 25 µg/mL (≈ 58.6 µM)
Rabbit erythrocytes
  HC50: >200 µg/mL
[2]
  MIC: 12.5 to 50 µg/mL (≈ 29.3 to 117 µM)
[3]; for the free primary amine group
  pKa: 10.54

## CCn1cc(C(=O)O)c(=O)c2cc(F)c(N3CCNCC3)cc21 [norfloxacin, reference compound]
S. aureus ATCC 29213 [4]
  increase in MIC values during passages: approximately 16 fold

## COc1cc(OCCCNC(=N)N)cc2oc3cc(OCCCNC(=N)N)ccc3c(=O)c12 [XT19]
MRSA N315
  MIC90: 12.5 µg/mL (≈ 27.4 µM)
MRSA NCTC 10442
  MIC90: 6.25 µg/mL (≈ 13.7 µM)
S. aureus ATCC 29213 [1]
  MIC90: 6.25 µg/mL (≈ 13.7 µM)
E. coli ATCC 25922
  MIC90: 100 µg/mL (≈ 219 µM)
Rabbit erythrocytes
  HC50: >200 µg/mL
Gram-positive bacteria
  MIC: 6.25 to 12.5 µg/mL (≈ 13.7 to 27.4 µM)
Gram-negative bacteria
  MIC: 100 µg/mL (≈ 219 µM)

## CC(C)=CCOc1cc(OCCCCCCNC(=N)N)cc2oc3cc(OCCCCCCNC(=N)N)ccc3c(=O)c12 [XT44]
A. baumannii ATCC 17978
  MIC90: 6.25 µg/mL (≈ 10.5 µM)
A. baumannii R2889
  MIC90: 12.5 µg/mL (≈ 21 µM)
K. pneumonia ATCC 10031
  MIC90: 0.78 µg/mL (≈ 1.31 µM)
K. pneumonia ATCC 14581
  MIC90: 0.78 µg/mL (≈ 1.31 µM)
MRSA N315
  MIC90: 0.098 µg/mL (≈ 0.165 µM)
MRSA NCTC 10442
  MIC90: 0.098 µg/mL (≈ 0.165 µM)
P. aeruginosa ATCC 9027
  MIC90: 25 µg/mL (≈ 42 µM)
S. aureus ATCC 29213 [1]
  MIC90: 0.098 µg/mL (≈ 0.165 µM)
E. coli ATCC 25922
  MIC90 E. coli ATCC 25922: 1.56 µg/mL (≈ 2.62 µM)
  MIC90: 1.56 to 12.5 µg/mL (≈ 2.62 to 21 µM)
Rabbit erythrocytes
  HC50: >200 µg/mL
Gram-positive bacteria
  MIC: 0.098 to 1.56 µg/mL (≈ 0.165 to 2.62 µM)
K. pneumoniae
  MIC: 0.78 µg/mL (≈ 1.31 µM)
CCK-8 cytotoxicity assay
  viability at 24 h, 25 μg/ml: 4.87 ± 0.4%

## O=c1c2ccc(O)cc2oc2cc(O)cc(O)c12 [XT01]
A. baumannii ATCC 17978
  MIC90: > 50 µg/mL
A. baumannii R2889
  MIC90: > 50 µg/mL
K. pneumonia ATCC 10031
  MIC90: > 50 µg/mL
K. pneumonia ATCC 14581
  MIC90: > 50 µg/mL
MRSA N315
  MIC90: 50 µg/mL (≈ 205 µM)
MRSA NCTC 10442
  MIC90: 50 µg/mL (≈ 205 µM)
P. aeruginosa ATCC 9027
  MIC90: > 50 µg/mL
S. aureus ATCC 29213 [1]
  MIC90: 50 µg/mL (≈ 205 µM)
E. coli ATCC 25922
  MIC90: > 100 µg/mL
Rabbit erythrocytes
  HC50: >200 µg/mL
